# Source: patent US20250388572A1, “USE OF HPK1 INHIBITOR IN PREVENTION AND/OR TREATMENT OF HUMAN PATHOGEN INFECTION” (priority 2022, published 2025)
# Read-outs that look alike come from different tables or passages of the source.
# Key:
# in vivo [1] = conditions: male, Sprague Dawley, rat
# Experimental: Six male Sprague Dawley rats were administrated a single dose via intravenous injection (iv, n=3) and oral administration (po, n=3), respectively. Intravenous injection was performed by formulating the compounds into 0.25 mg/ml or 0.5 mg/mL solutions using 10% DMSO/30% PEG400/60% water and administering it at a volume of 2 mL/kg. Oral administration was performed by formulating the compounds into 0.6 mg/ml or 2.0 mg/mL homogeneous suspensions using 0.5% methylcellulose and administering it at a volume of 5 mL/kg.
# The pharmacokinetic parameters of the compounds were calculated using the WinNolin non-compartmental model.
# [2] = Experimental: (§1) The procedure for identifying microsomal metabolites is as follows:
# (§2) The compounds (test compounds and their numbers are shown below, among which compounds A1 and B1 are prepared by referring to the relevant method disclosed in CN110396087A) were weighed and dissolved into dimethyl sulfoxide to prepare a 20 mM solution. The compound stock solution was diluted with 50% acetonitrile in water (v/v) to a concentration of 1.0 mM as a working solution. Liver microsomes (20 mg/mL) were diluted to 1.27 mg/mL with 50 mM dipotassium hydrogen phosphate buffer as a liver microsome working solution. Reduced coenzyme was weighed and dissolved in 3307 μL of phosphate buffer (50 mM) to 5.0 mM as a reduced coenzyme working solution. For T=60 minutes samples, 4 μL of test working solution (1.0 mM) was added, followed by 316 μL of liver microsome working solution (1.27 mg/mL), and finally, 80 μL of reduced coenzyme working solution was added to start the reaction. For T=0 minutes samples, 316 μL of liver microsome working solution (1.27 mg/mL) was added and then 80 μL of reduced coenzyme working solution was added to start the reaction, without test solution incubation. After incubation at 37° C. for 60 minutes, 1200 μL of stop solution was added to stop the enzyme reaction. For T=0 minute samples, 4 μL of test working solution (1.0 mM) was added. The sample plate was placed on a vortexer and vortexed at 600 rpm for 5 minutes. Then, the sample plate was centrifuged at 4000 rpm for 10 minutes. The supernatant was removed, mixed, and dried at room temperature with nitrogen. The residue dried with nitrogen was redissolved in 300 μL of 10% acetonitrile (0.1% FA) solvent and then centrifuged at 4000 rpm for 15 minutes. The supernatant was transferred to a detection plate for mass spectrometry. Mass spectrometry was performed using LC/Q-Exactive plus.
# (§3) 7-Ethoxycoumarin (10 μM) was selected as a positive control compound and operated in parallel with the compounds.
# [3] = remark: listed apart in the source
# Experimental: as §1, §2, §3
# [4] = remark: listed apart in the source
# Experimental: as §1, §2, §3
# [5] = remark: listed apart in the source
# Experimental: as §1, §2, §3
# [6] = remark: listed apart in the source
# Experimental: as §1, §2, §3
# in vivo [7] = conditions: male, cynomolgus monkey
# Experimental: Three male Cynomolgus macaques were administrated a single dose via intravenous injection (iv, 1 mg/kg, n=3), followed by oral administration (po, 10 mg/kg, n=3) after washing out for one week. Intravenous injection was performed by formulating the compounds into 1.0 mg/mL solutions using water or 10% DMSO/30% PEG400/water and administering it at a volume of 1 mL/kg. Oral administration was performed by formulating the compounds into 2.0 mg/mL solutions or suspensions using water or 0.5% methylcellulose/1.7 meq 1N hydrochloric acid and administering it at a volume of 5 mL/kg.
# The pharmacokinetic parameters of the compounds were calculated using the non-compartmental model.
# [8] = Solid state stability of the free base crystalline form A (HPLC); format: physicochemical; conditions: closed placement at 60° C. for 1 day
structure (smiles),measurement,setting,value
[2H]C([2H])(Oc1cc(-c2cnn(C3CCN(C)CC3)c2)cnc1N)c1cccc(C#CC(C)(C)O)c1 [C],AUC(0-t),"in vivo [1]; iv, 0.5 mg/kg",74.8 ng·h/mL
same,clearance,"in vivo [1]; iv, 0.5 mg/kg",101 mL/min/kg
same,AUC(0-t),"in vivo [1]; po, 3 mg/kg",42.8 ng·h/mL
same,bioavailability,"in vivo [1]; po, 3 mg/kg",9.52%
"CN1CCC(n2cc(-c3cnc(N)c(OCc4cccc(C#CC(C)(C)O)c4)c3)cn2)CC1 [Compound A1, reference compound]",remaining percentage of the parent cores after 60 min,"[2]; mouse, microsomes, 1 h, 10 µM",1.13%
same,AUC(0-t),"in vivo [1]; iv, 1 mg/kg",116 ng·h/mL
same,clearance,"in vivo [1]; iv, 1 mg/kg",129 mL/min/kg
same,AUC(0-t),"in vivo [1]; po, 10 mg/kg",79.8 ng·h/mL
same,bioavailability,"in vivo [1]; po, 10 mg/kg",6.84%
same,remaining percentage of the parent cores after 60 min,"[3]; human, microsomes, 1 h, 10 µM",43.84%
same,remaining percentage of the parent cores after 60 min,"[4]; rat, microsomes, 1 h, 10 µM",2.44%
same,remaining percentage of the parent cores after 60 min,"[5]; cynomolgus macaque, microsomes, 1 h, 10 µM",0.36%
same,remaining percentage of the parent cores after 60 min,"[6]; beagle, dog, microsomes, 1 h, 10 µM",0.17%
same,bioavailability,in vivo [7],4.61%
same,AUC(0-t),"in vivo [7]; iv, 1 mg/kg",881 ng·h/mL
same,clearance,"in vivo [7]; iv, 1 mg/kg",18.9 mL/min/kg
same,AUC(0-t),"in vivo [7]; po, 10 mg/kg",388 ng·h/mL
"[2H]C([2H])([2H])N1CCC(n2cc(-c3cnc(N)c(OCc4cccc(C#CC(C)(C)O)c4)c3)cn2)CC1 [Compound A2 free base crystalline form A, 4-(3-(((2-amino-5-(1-(1-trideuteriomethylpiperidin-4-yl)-1H-pyrazol-4-yl)pyridin-3-yl)oxy)methyl)phenyl)-2-methylbut-3-yn-2-ol]","HPLC Area (%) 60° C./1 day, peak 1","[8]; RRT 0.95, starting sample 0.42",0.41%
same,"HPLC Area (%) 60° C./1 day, peak 2","[8]; RRT 1.00 (main peak), starting sample 99.26",99.33%
same,"HPLC Area (%) 60° C./1 day, peak 3","[8]; RRT 1.05, starting sample 0.22",0.17%
same,"HPLC Area (%) 60° C./1 day, peak 4","[8]; RRT 1.06, starting sample 0.10",0.09%
"CN1CCC(c2ncc(-c3cnc(N)c(OCc4cccc(C#CC(C)(C)O)c4)c3)s2)CC1 [Compound B1, reference compound]",remaining percentage of the parent cores after 60 min,[2],1.24%
same,remaining percentage of the parent cores after 60 min,[3],51.82%
same,remaining percentage of the parent cores after 60 min,[4],11.21%
same,remaining percentage of the parent cores after 60 min,[5],9.11%
same,remaining percentage of the parent cores after 60 min,[6],0.12%
[2H]C([2H])([2H])N1CCC(c2ncc(-c3cnc(N)c(OCc4cccc(C#CC(C)(C)O)c4)c3)s2)CC1 [Compound B2],remaining percentage of the parent cores after 60 min,[2],42.8%
same,remaining percentage of the parent cores after 60 min,[3],70.4%
same,remaining percentage of the parent cores after 60 min,[4],43.9%
same,remaining percentage of the parent cores after 60 min,[5],23.4%
same,remaining percentage of the parent cores after 60 min,[6],8.9%
[2H]C([2H])([2H])C(O)(C#Cc1cccc(COc2cc(-c3cnn(C4CCN(C)CC4)c3)cnc2N)c1)C([2H])([2H])[2H] [D],AUC(0-t),"in vivo [1]; iv, 0.3 mg/kg",28.7 ng·h/mL
same,clearance,"in vivo [1]; iv, 0.3 mg/kg",151 mL/min/kg
same,AUC(0-t),"in vivo [1]; po, 2 mg/kg",9.94 ng·h/mL
same,bioavailability,"in vivo [1]; po, 2 mg/kg",5.2%
